The values that follow come from ChEMBL document CHEMBL1201862, “PubChem BioAssay data set” (2004).

Calls of active or inactive are those of the source.

The target of one test is Mucolipin-3 (Homo sapiens, UniProt Q8TDD5). Description: Dose response cell-based high-throughput screening assay for agonists of the transient receptor potential channel ML3 (TRPML3). [Related pubchem assays: 1526, 1424, 1448 ]. It counts as functional.
The next test deals with Ion channel NompC (Danio rerio, UniProt Q7T1G6). As to the kind of experiment: Fluorescence counterscreen assay for TRPML3 agonists: dose response cell-based high-throughput screening assay to identify agonists of the transient receptor potential channel N1 (TRPN1). [Related pubchem assays: 1526, 1424, 1448 ]. The format is functional. In general terms: A counterscreen serves to expose hits that act by an unwanted route or on another target.

Test [1] can be described thus: Luminescence Cell-Based Dose Response to Identify Activators of 5'UTR Stem-Loop Driven Prion Protein mRNA Translation in H4-C Neuroglioblastoma Cells. [Related pubchem assays: 1829 (Project Summary), 1814 (Primary HTS)]. It counts as functional.
Test [2] is described as follows: Luminescence Cell-Based Dose Confirmation HTS to Identify Activators of 5'UTR Stem-Loop Driven Alpha-Synuclein mRNA Translation in H4 Neuroglioblastoma Cells. [Related pubchem assays: 1829 (Project Summary), 1814 (Primary HTS)]. The format is functional.
The nature of test [3]: Luminescence Cell-Based Dose Response HTS to Identify Activators of Luciferase Translation or Activity in H4 […] Cells. [Related pubchem assays: 1829 (Project Summary), 1814 (Primary HTS)]. It counts as functional.
Another test concerns H4. As to the kind of experiment: Luminescence Cell-Based Dose Response HTS to Identify Activators of 5'UTR Stem-Loop Driven Prion Protein mRNA Translation in H4 Neuroglioblastoma Cells. [Related pubchem assays: 1829 (Project Summary), 1814 (Primary HTS)]. It counts as functional. The settings on record: Homo sapiens.
Test [4] is described as follows: Luminescence Cell-Based Dose Response to Identify Activators of Luciferase Translation or Activity in H4-C Neuroglioblastoma Cells. [Related pubchem assays: 1829 (Project Summary), 1814 (Primary HTS)]. The format is functional.
Test [5] in a line: Luminescence Cell-Based Dose Confirmation to Identify Activators of 5'UTR Stem-Loop Driven Alpha-Synuclein mRNA Translation in H4 Neuroglioblastoma Cells. [Related pubchem assays: 1829 (Project Summary), 1814 (Primary HTS)]. The format is functional.
For test [6], the target named is Peroxisome proliferator-activated receptor gamma/Nuclear receptor corepressor 2 (Homo sapiens, UniProt P37231+Q9Y618). Description: Counterscreen for NR2E3 inverse agonists: TR-FRET-based biochemical high throughput dose response assay to identify inverse agonists of the interaction between peroxisome proliferator-activated receptor gamma (PPARg) and nuclear receptor co-repressor 2 (NCOR2). It counts as functional.

In test [7] the target is Photoreceptor-specific nuclear receptor (Homo sapiens, UniProt Q9Y5X4). As to the kind of experiment: ligands suppressing NR2E3 nuclear receptor activity – biochemical, TR-FRET, dose response (AID 463256). The format is functional. A general note: In TR-FRET formats the signal depends on donor and acceptor labels being close together.
For test [8], the target named is T1, Endoribonuclease toxin MazF (Escherichia coli K-12, UniProt P0AE70).
T1 sequence (P0AE70 whole entry): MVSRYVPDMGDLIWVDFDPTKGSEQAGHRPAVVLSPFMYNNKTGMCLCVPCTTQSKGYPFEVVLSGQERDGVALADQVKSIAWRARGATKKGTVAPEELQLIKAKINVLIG
As to the kind of experiment: MazEF toxin-antitoxin RNase activation – biochemical, fluorescence, single-stranded RNA substrate, SAR follow-up (AID 588603). It counts as functional.

Test [9] concerns the target T1, Endoribonuclease toxin MazF. Description: activation of MazEF endoribonuclease cleavage – biochemical, fluorescence, single-stranded RNA substrate, uHTS hits, dose response (AID 588481). The format is functional.
In another test the test system is MEF. As to the kind of experiment: SAR analysis of small molecule cytotoxicity of MazEF TA System activators in embryonic fibroblast (MEF) cells. [Related pubchem assays (depositor defined):AID504720, AID504743]. To be noted: Mus musculus. The format is functional.
The target of test [10] is T1, Endoribonuclease toxin MazF. Description: SAR analysis of small molecule activators of the MazEF TA System via a fluorescence-based single-stranded RNase assay counterscreen. [Related pubchem assays (depositor defined):AID504720, AID504743]. The format is functional.
For test [11] the target is unchanged. As to the kind of experiment: substrate-only fluorescence increase artefacts – biochemical, single-stranded RNase substrate, counter-screen for MazEF activator project, dose response (AID 588502). The format is functional.
The target of a further test is Cytochrome P450 3A4 (Homo sapiens, UniProt P08684).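 Further: CYP3A4 tested as one member of a cytochrome P450 panel screen.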
Another test has as its target Cytochrome P450 2C9 (Homo sapiens, UniProt P11712).
Test [12] concerns the target T2, Low molecular weight phosphotyrosine protein phosphatase (Homo sapiens, UniProt P24666).
T2 sequence (P24666 whole entry): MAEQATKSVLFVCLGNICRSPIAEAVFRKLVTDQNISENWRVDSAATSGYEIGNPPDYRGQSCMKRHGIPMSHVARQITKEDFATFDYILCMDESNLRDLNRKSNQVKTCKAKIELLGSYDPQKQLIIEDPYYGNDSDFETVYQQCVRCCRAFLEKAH
As to the kind of experiment: inhibition of LMPTP-A enzymatic activity – biochemical, OMFP substrate, fluorescence intensity, set 2, dose response (AID 743307). It counts as functional.

In test [13] the target is T2, Low molecular weight phosphotyrosine protein phosphatase. As to the kind of experiment: inhibition of human LMPTP enzyme activity – biochemical, absorbance, pNPP substrate, LMPTP-A isoform, set 2, orthogonal assay, dose response (AID 743308). It counts as functional.
Test [14] addresses Sphingosine 1-phosphate receptor 2 (Homo sapiens, UniProt O95136). As to the kind of experiment: Dose Response Cell Based Assay for Agonists of the S1P2 Receptor. [Related pubchem assays: 729, 736, 843 ]. It counts as functional.
The target in test [15] is Sphingosine 1-phosphate receptor 4 (Homo sapiens, UniProt O95977). As to the kind of experiment: Fluorescence dose response cell-based high throughput screening assay for antagonists of the Sphingosine 1-Phosphate Receptor 4 (S1P4). [Related pubchem assays: 1524 (Confirmation in triplicates.), 1510 (Primary screen.)]. It counts as functional.
The target of test [16] is Sphingosine 1-phosphate receptor 1 (Homo sapiens, UniProt P21453). It counts as functional.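 Further: Tango beta-arrestin reporter U2OS cells stimulated with S1P near its EC80; inhibitor potency meaning antagonism of receptor activation by the natural agonist.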
The next test deals with Vero. Description: cells. The format is functional. To be noted: Chlorocebus sabaeus.
For test [17], the target named is T3, Hepatocyte nuclear factor 4-alpha (Homo sapiens, UniProt P41235).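 Further: biochemical luminescence-based dose-response counterscreen measuring inhibition of HNF4 dimerization, run alongside a screen for blockers of ABHD5–perilipin-5 interaction; split luciferase complementation of HNF4 fusion proteins in cell lysate measuring dimerization.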
T3 sequence (P41235 whole entry): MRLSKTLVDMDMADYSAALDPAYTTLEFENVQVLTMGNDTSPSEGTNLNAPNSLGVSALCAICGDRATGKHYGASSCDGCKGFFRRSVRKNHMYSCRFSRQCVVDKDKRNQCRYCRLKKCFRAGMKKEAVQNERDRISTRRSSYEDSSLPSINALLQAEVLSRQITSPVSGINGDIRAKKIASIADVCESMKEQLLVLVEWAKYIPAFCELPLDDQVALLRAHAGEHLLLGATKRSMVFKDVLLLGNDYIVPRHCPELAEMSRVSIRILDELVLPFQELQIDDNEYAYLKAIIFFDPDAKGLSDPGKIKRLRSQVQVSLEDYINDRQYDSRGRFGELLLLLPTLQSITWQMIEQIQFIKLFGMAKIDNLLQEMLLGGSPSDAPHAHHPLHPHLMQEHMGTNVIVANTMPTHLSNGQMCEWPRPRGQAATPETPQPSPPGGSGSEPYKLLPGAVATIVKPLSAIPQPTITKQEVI
The format is functional, cell-based.

The nature of test [18]: reduced cellular PGC1a acetyl-lysine signal – cell-based, cherry-picked samples, dose response (AID 720514).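 Further: potency may reflect raised or lowered acetylation signal.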 The format is functional.
Another test has as its target Genome polyprotein (Hepatitis C virus, UniProt Q2Q167). Description: disruption of hepatitis C core self-association – biochemical, TR-FRET, dose response (AID 2159).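 Further: blocks dimerization of HCV core protein measured by TR-FRET between tagged core106 pairs.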 Set-up: species or system Hepacivirus hominis.
Test [19] concerns the target Voltage-gated inwardly rectifying potassium channel KCNH2 (Homo sapiens, UniProt Q12809). As to the kind of experiment: concentration-dependent hERG rescue from blockers – cell-based, thallium flux, dose response (AID 2121). The format is ADME.
The target in test [20] is T4, Polyadenylate-binding protein 1 (Homo sapiens, UniProt P11940). As to the kind of experiment: MLLE binding blockers, Cy5 peptide tracer – biochemical, fluorescence polarization, Cy5-PAM2 peptide, secondary, miRNA deadenylation inhibitor project, dose response (AID 602260). The settings on record: read-out: IC50_Mean. The format is functional.
For test [21], the target named is T4, Polyadenylate-binding protein 1. As to the kind of experiment: MLLE domain peptide-binding blockers, IC50 – biochemical, fluorescence polarization, FITC-PAM2 peptide, dose response (AID 602259). It counts as functional. The settings on record: read-out: IC50_Mean. A general note: Fluorescence polarisation rises when a labelled molecule tumbles more slowly, as on binding a larger partner.

T4 sequence (P11940 whole entry, the tested form may be a part): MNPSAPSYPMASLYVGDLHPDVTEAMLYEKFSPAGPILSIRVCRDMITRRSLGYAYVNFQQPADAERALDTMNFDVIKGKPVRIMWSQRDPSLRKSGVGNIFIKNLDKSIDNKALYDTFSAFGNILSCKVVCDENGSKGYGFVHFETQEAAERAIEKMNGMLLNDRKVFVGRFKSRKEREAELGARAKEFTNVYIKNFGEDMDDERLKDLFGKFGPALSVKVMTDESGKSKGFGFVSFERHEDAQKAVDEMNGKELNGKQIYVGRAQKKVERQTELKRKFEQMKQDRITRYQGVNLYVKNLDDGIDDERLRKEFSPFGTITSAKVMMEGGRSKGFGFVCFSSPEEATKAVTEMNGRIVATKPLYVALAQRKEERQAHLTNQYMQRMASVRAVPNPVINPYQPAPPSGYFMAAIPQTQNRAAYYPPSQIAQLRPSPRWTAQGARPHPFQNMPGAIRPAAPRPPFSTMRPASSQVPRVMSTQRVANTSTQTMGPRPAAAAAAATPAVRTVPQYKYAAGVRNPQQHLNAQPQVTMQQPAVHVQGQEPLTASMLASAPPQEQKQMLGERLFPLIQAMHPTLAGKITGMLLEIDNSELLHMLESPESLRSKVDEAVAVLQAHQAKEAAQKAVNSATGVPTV
Voltage-gated inwardly rectifying potassium channel KCNH2, sequence (Q12809 whole entry): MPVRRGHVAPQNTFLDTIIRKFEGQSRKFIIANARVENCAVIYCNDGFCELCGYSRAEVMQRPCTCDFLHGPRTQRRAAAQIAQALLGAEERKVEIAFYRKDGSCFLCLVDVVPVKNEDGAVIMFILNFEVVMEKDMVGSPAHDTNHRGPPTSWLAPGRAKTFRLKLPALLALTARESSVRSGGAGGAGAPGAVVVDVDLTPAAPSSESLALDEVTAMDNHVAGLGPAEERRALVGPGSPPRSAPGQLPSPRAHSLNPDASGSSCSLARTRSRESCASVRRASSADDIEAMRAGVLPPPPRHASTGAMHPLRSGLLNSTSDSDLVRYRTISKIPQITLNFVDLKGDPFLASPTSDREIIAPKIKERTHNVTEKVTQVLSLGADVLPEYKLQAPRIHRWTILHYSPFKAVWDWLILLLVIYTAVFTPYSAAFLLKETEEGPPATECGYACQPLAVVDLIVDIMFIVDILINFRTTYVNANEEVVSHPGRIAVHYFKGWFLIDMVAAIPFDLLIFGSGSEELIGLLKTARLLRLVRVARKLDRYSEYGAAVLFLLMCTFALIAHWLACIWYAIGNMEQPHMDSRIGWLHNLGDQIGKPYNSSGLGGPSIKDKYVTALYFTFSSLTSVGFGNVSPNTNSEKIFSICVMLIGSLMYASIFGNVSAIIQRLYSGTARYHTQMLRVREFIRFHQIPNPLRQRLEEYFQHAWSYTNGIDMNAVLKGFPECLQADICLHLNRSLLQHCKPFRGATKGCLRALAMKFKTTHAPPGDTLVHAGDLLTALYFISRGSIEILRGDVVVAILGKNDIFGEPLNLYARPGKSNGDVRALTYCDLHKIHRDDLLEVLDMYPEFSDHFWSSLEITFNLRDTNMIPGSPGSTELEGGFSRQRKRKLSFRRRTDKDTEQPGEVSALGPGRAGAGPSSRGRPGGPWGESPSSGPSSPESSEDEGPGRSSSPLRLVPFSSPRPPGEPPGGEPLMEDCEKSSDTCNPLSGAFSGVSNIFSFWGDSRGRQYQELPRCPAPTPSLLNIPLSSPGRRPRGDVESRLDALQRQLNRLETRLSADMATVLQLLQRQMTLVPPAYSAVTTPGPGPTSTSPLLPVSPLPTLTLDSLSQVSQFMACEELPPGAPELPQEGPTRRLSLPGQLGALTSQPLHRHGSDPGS
Sphingosine 1-phosphate receptor 1, sequence (P21453 whole entry): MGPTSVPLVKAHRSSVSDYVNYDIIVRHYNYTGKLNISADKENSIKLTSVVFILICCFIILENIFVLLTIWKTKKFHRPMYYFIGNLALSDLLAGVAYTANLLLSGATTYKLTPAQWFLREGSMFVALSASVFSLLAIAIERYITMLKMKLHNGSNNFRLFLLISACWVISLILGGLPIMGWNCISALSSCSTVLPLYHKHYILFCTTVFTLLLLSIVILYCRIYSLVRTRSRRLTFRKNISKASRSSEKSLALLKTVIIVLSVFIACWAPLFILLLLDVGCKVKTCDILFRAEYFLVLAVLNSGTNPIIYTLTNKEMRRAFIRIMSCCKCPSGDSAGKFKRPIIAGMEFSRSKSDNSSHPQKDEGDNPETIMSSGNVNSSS
Genome polyprotein, sequence (Q2Q167 whole entry): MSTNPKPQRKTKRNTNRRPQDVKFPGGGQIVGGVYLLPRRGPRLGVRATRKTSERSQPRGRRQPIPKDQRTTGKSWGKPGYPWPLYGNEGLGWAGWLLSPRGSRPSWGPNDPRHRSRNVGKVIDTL
Photoreceptor-specific nuclear receptor, sequence (Q9Y5X4 whole entry): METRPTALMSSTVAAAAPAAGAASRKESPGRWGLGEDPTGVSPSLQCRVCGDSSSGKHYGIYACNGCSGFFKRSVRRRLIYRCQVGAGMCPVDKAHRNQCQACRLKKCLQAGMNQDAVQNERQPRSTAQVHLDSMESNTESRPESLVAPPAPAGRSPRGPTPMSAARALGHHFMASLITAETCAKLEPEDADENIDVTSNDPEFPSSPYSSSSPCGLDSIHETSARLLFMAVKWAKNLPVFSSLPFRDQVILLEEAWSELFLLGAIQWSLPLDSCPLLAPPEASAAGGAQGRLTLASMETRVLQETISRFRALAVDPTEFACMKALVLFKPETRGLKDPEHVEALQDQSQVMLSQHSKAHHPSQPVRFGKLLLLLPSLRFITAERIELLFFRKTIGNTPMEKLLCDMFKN
Sphingosine 1-phosphate receptor 4, sequence (O95977 whole entry): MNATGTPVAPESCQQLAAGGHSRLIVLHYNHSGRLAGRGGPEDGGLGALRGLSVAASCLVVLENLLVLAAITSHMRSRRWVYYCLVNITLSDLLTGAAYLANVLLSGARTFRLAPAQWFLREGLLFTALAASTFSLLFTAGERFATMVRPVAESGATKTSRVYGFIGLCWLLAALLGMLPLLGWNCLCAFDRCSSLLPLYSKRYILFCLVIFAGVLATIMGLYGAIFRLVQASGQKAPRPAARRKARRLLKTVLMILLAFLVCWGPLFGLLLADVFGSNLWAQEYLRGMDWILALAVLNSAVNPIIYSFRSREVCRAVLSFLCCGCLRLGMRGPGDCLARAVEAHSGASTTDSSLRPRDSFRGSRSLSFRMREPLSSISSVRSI
Sphingosine 1-phosphate receptor 2, sequence (O95136 whole entry): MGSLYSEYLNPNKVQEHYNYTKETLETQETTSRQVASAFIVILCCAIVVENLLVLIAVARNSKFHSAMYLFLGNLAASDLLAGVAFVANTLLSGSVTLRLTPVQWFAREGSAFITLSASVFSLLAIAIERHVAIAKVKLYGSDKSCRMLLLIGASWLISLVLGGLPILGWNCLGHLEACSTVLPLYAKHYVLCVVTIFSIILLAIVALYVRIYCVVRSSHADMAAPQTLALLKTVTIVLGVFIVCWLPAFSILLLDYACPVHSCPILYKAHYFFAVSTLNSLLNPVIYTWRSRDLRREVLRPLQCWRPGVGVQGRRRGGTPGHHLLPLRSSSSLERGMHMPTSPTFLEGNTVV
Mucolipin-3, sequence (Q8TDD5 whole entry): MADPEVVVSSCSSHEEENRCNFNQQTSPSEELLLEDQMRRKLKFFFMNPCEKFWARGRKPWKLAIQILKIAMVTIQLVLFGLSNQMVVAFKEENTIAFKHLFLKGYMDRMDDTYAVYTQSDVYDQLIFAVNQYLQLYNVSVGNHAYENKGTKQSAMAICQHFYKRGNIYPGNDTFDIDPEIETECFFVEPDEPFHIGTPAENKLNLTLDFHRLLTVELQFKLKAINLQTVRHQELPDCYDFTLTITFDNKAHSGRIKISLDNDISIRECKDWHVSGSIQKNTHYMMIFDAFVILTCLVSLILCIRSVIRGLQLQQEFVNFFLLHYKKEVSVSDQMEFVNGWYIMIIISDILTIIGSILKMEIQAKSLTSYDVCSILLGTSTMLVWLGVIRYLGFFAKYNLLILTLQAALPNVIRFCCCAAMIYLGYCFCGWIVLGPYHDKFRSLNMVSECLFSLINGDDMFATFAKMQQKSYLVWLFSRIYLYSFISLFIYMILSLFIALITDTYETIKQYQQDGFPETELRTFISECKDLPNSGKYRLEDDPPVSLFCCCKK
Cytochrome P450 2C9, sequence (P11712 whole entry): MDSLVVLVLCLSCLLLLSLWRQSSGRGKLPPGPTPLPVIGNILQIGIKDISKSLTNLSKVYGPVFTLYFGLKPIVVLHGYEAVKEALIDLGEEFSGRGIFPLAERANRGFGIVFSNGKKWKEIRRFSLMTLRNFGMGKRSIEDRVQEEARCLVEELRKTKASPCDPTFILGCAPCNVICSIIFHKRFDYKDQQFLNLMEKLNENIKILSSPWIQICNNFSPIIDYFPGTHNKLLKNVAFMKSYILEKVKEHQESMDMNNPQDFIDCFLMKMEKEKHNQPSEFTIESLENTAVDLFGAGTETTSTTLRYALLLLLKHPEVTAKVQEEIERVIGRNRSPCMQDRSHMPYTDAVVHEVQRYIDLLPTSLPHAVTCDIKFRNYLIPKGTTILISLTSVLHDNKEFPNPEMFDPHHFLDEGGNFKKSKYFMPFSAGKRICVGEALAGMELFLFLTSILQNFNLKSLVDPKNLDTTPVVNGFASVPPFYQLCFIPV
Cytochrome P450 3A4, sequence (P08684 whole entry): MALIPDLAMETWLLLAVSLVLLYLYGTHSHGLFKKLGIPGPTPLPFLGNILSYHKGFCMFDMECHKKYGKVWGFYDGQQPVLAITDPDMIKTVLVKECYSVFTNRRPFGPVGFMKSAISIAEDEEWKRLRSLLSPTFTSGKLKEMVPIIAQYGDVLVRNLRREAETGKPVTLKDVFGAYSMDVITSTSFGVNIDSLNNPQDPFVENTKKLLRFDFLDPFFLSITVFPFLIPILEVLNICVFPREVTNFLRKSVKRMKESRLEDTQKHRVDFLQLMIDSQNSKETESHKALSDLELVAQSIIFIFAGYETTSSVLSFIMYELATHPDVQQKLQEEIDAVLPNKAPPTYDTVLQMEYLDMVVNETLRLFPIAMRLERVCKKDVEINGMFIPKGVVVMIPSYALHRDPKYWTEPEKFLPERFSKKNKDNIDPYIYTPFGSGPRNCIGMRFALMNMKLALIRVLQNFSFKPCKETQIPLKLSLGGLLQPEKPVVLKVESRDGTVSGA

A word on the EC50: it is the concentration giving half of the maximal effect. For `CSc1nc2ccccc2nc1N(C)S(=O)(=O)c1ccc(C)cc1`, the EC50 at Mucolipin-3 and at Ion channel NompC was > 29.9 µM (not active) each time.
Take `CC1CCCCN1CCCNC(=O)c1ccc2nc(N3CCCCC3)sc2c1` (centres undefined): the half-maximal effective concentration (EC50) in test [1] is 0.994 µM (active); in test [2], 0.177 µM (active); in [3], < 0.1 µM (active); in the test with H4, 15.1 µM (active); in test [4], 0.397 µM (active); in test [5] it was 0.593 µM (active).
One may read the CC50 as the concentration that lowers cell viability or growth by half. As a reminder, the AC50 is the midpoint of the concentration-response curve, whichever way the signal moves. Turning to `O=C(CSc1nc(-c2ccccc2)nc2ccccc12)Nc1nccs1`, the IC50 in test [6] was > 39.8 µM (not active); in test [7], 5.93 µM (active). For the same compound, the EC50 in test [8] was 29.1 µM (inactive); in test [9], 20.7 µM (inactive); in [10] it was > 99 µM (inactive); in [11], 45 µM (inactive). Besides, in the test with MEF, the half-maximal cytotoxic concentration (CC50) is 29.7 µM (active). Besides, the AC50 at Cytochrome P450 3A4 is 1 µM (inconclusive); on Cytochrome P450 2C9, 0.631 µM (inconclusive).
Take `c1ccc(-c2nc(NC3CC3)c3ccccc3n2)cc1`: the IC50 in test [12] was 48.1 µM (inactive); in [13] it was > 80 µM (inactive).
As to `Cc1ccc(Cn2cccc(-c3nc4ccccc4s3)c2=O)cc1`, the EC50 in test [14] is 4.14 µM (active).
In the case of `O=C(/C=C/c1ccccc1)CC(O)(c1ccccc1)C(F)(F)C(F)F` (centres undefined), the IC50 was 1.7 µM (active) in test [15], 30.6 µM (not active) in test [16] and 2.27 µM (active) in test [17]. The cytotoxic concentration (CC50) in the test with Vero was 17.5 µM (active). For the same compound, in test [18], the AC50 was 12.4 µM (active).
Consider `CC1(C)Cc2c(C#N)c(N3CCN(C(=O)c4ccco4)CC3)nc(-c3ccco3)c2CS1`, for which the IC50 against Genome polyprotein is recorded as > 49.8 µM (not active).
As for `Cc1ccc(S(=O)(=O)N=C(S)NC2CCCCC2)cc1`, the EC50 in test [19] was 9.12 µM (active). For the same compound, the IC50 in test [20] and in [21] was > 66 µM (inactive) each time.
